Article PMC5654968 (NPJ Systems Biology and Applications, 2017)
Like-named read-outs stand apart in the source and are kept apart here.

Type: in vivo, rat
Protocol: Distilled water and saline were administered as vehicle to rats in each control group. […] Plasma cytokine levels were measured by ELISA or multiplex immunoassay; common metabolites and lipid mediators were analyzed by GC-MS/MS and LC-MS/MS, respectively.
Pathway maps of lipid mediators were created by using CellDesigner 4.4 software (http://www.celldesigner.org). We evaluated the effects of the treatments on specific lipid mediators and categorized them according to COX, CYP and LOX pathways by Fisher’s exact test. The proinflammatory and anti-inflammatory indices were analyzed as described by Tam et al. with modification.[22]

[1] = PM/P (polyI:C+maoto vs polyI:C), 2h
[2] = PM/P (polyI:C+maoto vs polyI:C), 4h

| Structure (SMILES) | log2FC of plasma level (M/C (maoto vs control), 2h) | log2FC of plasma level (M/C (maoto vs control), 4h) | log2FC of plasma level (P/C (polyI:C vs control), 2h) | log2FC of plasma level (P/C (polyI:C vs control), 4h) | log2FC of plasma level [1] | log2FC of plasma level [2] | log2FC of plasma level | log2FC of plasma level (first value of an incomplete line, time (2h or 4h) not assignable) |
| --- | --- | --- | --- | --- | --- | --- | --- | --- |
| O=C(O)CCC/C=C\C/C=C\C/C=C\C/C=C\CCCCCO [20-HETE] | 0.51 | -0.20 | -0.23 | 0.52 | 0.70 | 0.06 |  |  |
| O=C(O)CCC/C=C\C/C=C\C/C=C\C/C=C\CCCCC(=O)O [20-carboxy-AA] | 0.40 | 0.17 | 0.03 | 0.32 | 0.28 | 0.00 |  |  |
| CCCCC/C=C\C/C=C\C/C=C\C/C=C\CCCC(=O)O [AA, arachidonic acid] | 0.19 | -0.02 | 0.12 | 0.14 | -0.10 | -0.04 |  |  |
| CC/C=C\C/C=C\C/C=C\C/C=C\C/C=C\C/C=C\CCC(=O)O [DHA, docosahexaenoic acid] | 0.46 | -0.10 | 0.22 | 0.09 | 0.05 | 0.03 |  |  |
| CC/C=C\C/C=C\C/C=C\C/C=C\C/C=C\CCCC(=O)O [EPA, eicosapentaenoic acid] | 0.56 | -0.10 | 0.28 | -0.05 | 0.04 | 0.03 |  |  |
| CCCCC/C=C\C\C=C/C=C/C=C/[C@@H](SC[C@H](N)C(=O)O)[C@@H](O)CCCC(=O)O [LTE4] | -0.95 | -1.00 | 1.04 | 0.58 | -0.91 | -0.51 |  |  |
| CCCCC/C=C\C\C=C/C=C/C=C/[C@@H](SCC(NC(C)=O)C(=O)O)[C@@H](O)CCCC(=O)O (some centres unmarked) [N-acetyl-LTE4] | -1.85 | -1.41 | 2.21 | 1.28 | -2.45 | -0.96 |  |  |
| CCCCC[C@H](O)/C=C/[C@H]1C(=O)C[C@H](O)[C@@H]1C/C=C\CCCC(=O)O [PGD2] | -0.26 | -0.58 | 0.28 | 0.92 | -0.11 | -1.25 |  |  |
| CC/C=C\C[C@H](O)/C=C/[C@H]1C(=O)C[C@H](O)[C@@H]1C/C=C\CCCC(=O)O [PGD3] |  |  |  |  |  |  | -0.55 | -0.03 |
| CCCCC[C@H](O)/C=C/[C@H]1[C@H](O)CC(=O)[C@@H]1C/C=C\CCCC(=O)O [PGE2] | -0.31 | 0.22 | 0.59 | 0.59 | -0.15 | 0.22 |  |  |
| CCCCC[C@H](O)/C=C/[C@@H]1[C@@H](C/C=C\CCCC(=O)O)[C@@H](O)C[C@H]1O [PGF2α] | 0.30 | -0.20 | 0.24 | -0.04 | 0.14 | -0.13 |  |  |
| CCCCC[C@H](O)/C=C/[C@H]1OC(O)C[C@H](O)[C@@H]1C/C=C\CCCC(=O)O (some centres unmarked) [TXB2] | 1.36 | -0.87 | 0.70 | 0.28 | 0.92 | -0.46 |  |  |
